Where two headings read alike, the source gives them in different places.
Tests used:
[1] = system: KMS-12-BM myeloma cell line; assay: Pim cell assay: phospho-BAD (S112) and total BAD in KMS-12-BM cells; type: cell-based; settings: 1 hour and 50 minutes incubation
Method: The KMS-12-BM myeloma cell line was used to determine the in vitro cellular inhibition of Pim kinases. Disruption of Pim signaling by Pim inhibitors was determined by measuring the levels of phospho-BAD (S112) and total BAD. […] The cells were then incubated overnight at 37° C., 5% CO2. […] In addition to the 10-point dosing curve of the test compound, DMSO alone was run as a control. This dilution in DMSO was then diluted again into cell growth medium. Aliquots (11.1 uL) of the compound diluted in growth medium were then transferred to the appropriate wells of the 96-well plates containing cells to yield a final DMSO concentration of 0.3%. The cell plates were then incubated with compound for 1 hour and 50 minutes at 37° C., 5% CO2. After the 1 hour and 50 min incubation, the cell plates were spun at 1000 RPM for 10 minutes and the compound-containing medium was removed. […] The cell plates containing lysis buffer were then immediately stored at −70° C. These prepared lysates were then assayed for phospho-(S112) and total-BAD according to the manufacturer's protocol (Meso Scale Diagnostics, Cat # K15103D-3). The plates were read on the MSD Sector Imager 6000, and results were calculated according to the assay protocol: ((% Phosphoprotein=((2×Phospho signal)/(Phospho signal+Total signal))×100)).

Pim-2 = Pim-2 (Homo sapiens (Human), UniProt Q9P1W9); assay: Pim enzyme assay (HTRF, phosphorylation of biotinylated-BAD (S112) peptide), Pim-2; type: biochemical
Chain of Pim-2 (Q9P1W9 whole entry): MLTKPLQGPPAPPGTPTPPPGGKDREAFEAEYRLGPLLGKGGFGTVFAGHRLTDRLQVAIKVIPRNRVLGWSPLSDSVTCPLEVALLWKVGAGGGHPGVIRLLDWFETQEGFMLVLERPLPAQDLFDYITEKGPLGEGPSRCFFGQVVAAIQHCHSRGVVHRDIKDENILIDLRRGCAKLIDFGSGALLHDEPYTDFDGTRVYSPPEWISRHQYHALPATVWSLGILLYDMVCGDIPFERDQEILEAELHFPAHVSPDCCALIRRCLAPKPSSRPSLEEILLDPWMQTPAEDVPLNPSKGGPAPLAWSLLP
Method in brief: (§1)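 Full-length human Pim-1 or Pim-2 with an N-terminal His6 tag, expressed in Sf9 or E. coli and purified as monomer. HTRF read-out: biotinylated BAD (S112) peptide phosphorylation detected with streptavidin-APC plus Eu-anti-phospho-BAD(S112) antibody, excitation 337 nm, emission 665 nm.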

Pim-1 = Pim-1 (Homo sapiens (Human), UniProt P11309); assay: Pim enzyme assay (HTRF, phosphorylation of biotinylated-BAD (S112) peptide), Pim-1; type: biochemical
Chain of Pim-1 (P11309 whole entry): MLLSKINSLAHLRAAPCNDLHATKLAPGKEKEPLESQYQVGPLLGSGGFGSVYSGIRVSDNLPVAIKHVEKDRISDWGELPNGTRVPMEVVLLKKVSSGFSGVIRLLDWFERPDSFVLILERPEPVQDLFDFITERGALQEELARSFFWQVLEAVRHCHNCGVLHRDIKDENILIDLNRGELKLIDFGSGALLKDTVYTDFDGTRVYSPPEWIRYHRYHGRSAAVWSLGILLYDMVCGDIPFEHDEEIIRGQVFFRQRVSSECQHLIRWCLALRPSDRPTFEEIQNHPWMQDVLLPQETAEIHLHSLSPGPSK
Method in brief: as §1

[2] = Homo sapiens, KMS-12-BM, read-out: KMS-12-BM IC50 IP
[3] = full length recombinant Pim-1, biotinylated-BAD (S112) peptide, HTRF, 96-well, read-out: Pim-1 IC50 IP
[4] = full length recombinant Pim-2, biotinylated-BAD (S112) peptide, HTRF, 96-well, read-out: Pim-2 IC50 IP
[5] = tris(2,2,2-trifluoroacetate), read-out: KMS-12-BM IC50 IP
[6] = Homo sapiens, KMS-12-BM, read-out: KMS12_Cell_IC50
[7] = full length recombinant Pim-2, biotinylated-BAD (S112) peptide, HTRF, read-out: Pim2_IC50
[8] = full length recombinant Pim-1, biotinylated-BAD (S112) peptide, HTRF, read-out: Pim_1_IC50

Structure (SMILES): C[C@@H]1C[C@H](N)CN(c2ccncc2Nc2nnc3ccc(-c4c(F)cccc4F)nn23)C1 [Example 90, N-(4-((3S,5R)-3-amino-5-methylpiperidin-1-yl)pyridin-3-yl)-6-(2,6-difluorophenyl)-[1,2,4]triazolo[4,3-b]pyridazin-3-amine bis(2,2,2-trifluoroacetate)]
- IC50 [1, 2]: 509 nM
- IC50 (Pim-2; read-out: Pim-2 IC50 IP): 3.9 nM
- IC50 (Pim-1; [3]): 1 nM

Structure (SMILES): C[C@H]1CN(c2ccncc2Nc2ncc3ccc(-c4ncccc4F)nn23)C[C@@H](N)[C@@H]1O [Example 66, (3R,4R,5S)-3-amino-1-(3-((2-(3-fluoropyridin-2-yl)imidazo[1,5-b]pyridazin-7-yl)amino)pyridin-4-yl)-5-methylpiperidin-4-ol]
- IC50 [1, 2]: 115 nM
- IC50 (Pim-2; [4]): 1.3 nM
- IC50 (Pim-1; [3]): 0.3 nM

Structure (SMILES): N[C@H]1C[C@@H](F)CN(c2ccncc2Nc2ncc3ccc(-c4ncccc4F)nn23)C1 [Example 53, N-(4-((3S,5R)-3-amino-5-fluoro-1-piperidinyl)-3-pyridinyl)-2-(3-fluoro-2-pyridinyl)imidazo[1,5-b]pyridazin-7-amine]
- IC50 [1, 2]: 1200 nM
- IC50 (Pim-2; [4]): 10.9 nM
- IC50 (Pim-1; [3]): 3.4 nM

Structure (SMILES): C[C@@H]1CCN(c2ccncc2Nc2ncc3ccc(-c4c(F)cccc4F)nn23)C[C@H]1N (single isomer, unassigned) [Example 100, N-(4-((trans)-3-amino-4-methylpiperidin-1-yl)pyridin-3-yl)-2-(2,6-difluorophenyl)imidazo[1,5-b]pyridazin-7-amine tris(2,2,2-trifluoroacetate)]
- IC50 [1, 5]: 77.5 nM
- IC50 (Pim-2; read-out: Pim-2 IC50 IP): 0.2 nM
- IC50 (Pim-1; read-out: Pim-1 IC50 IP): < 0.1 nM

Structure (SMILES): C[C@@H]1C[C@H](N)CN(c2ccncc2Nc2ncc3ccc(-c4ccccc4F)nn23)C1 (single isomer, unassigned) [Example 46, N-(4-((cis)-3-amino-5-methylpiperidin-1-yl)pyridin-3-yl)-2-(2-fluorophenyl)imidazo[1,5-b]pyridazin-7-amine tris(2,2,2-trifluoroacetate)]
- IC50 [1, 5]: 52.1 nM
- IC50 (Pim-2; [4]): 0.1 nM
- IC50 (Pim-1; [3]): < 0.1 nM

Structure (SMILES): N[C@H]1CCCN(c2ccncc2Nc2ncc3ccc(-c4ccc(F)cc4F)nn23)C1 [Example 12, N-(4-((3S)-3-amino-1-piperidinyl)-3-pyridinyl)-2-(2,4-difluorophenyl)imidazo[1,5-b]pyridazin-7-amine]
- IC50 [1, 6]: 1760 nM
- IC50 (Pim-2; [7]): 3 nM
- IC50 (Pim-1; [8]): 0.4 nM

Structure (SMILES): N[C@H]1CCCN(c2ccncc2Nc2ncc3ccc(-c4ccccc4Cl)nn23)C1 [Example 4, N-(4-((3S)-3-amino-1-piperidinyl)-3-pyridinyl)-2-(2-chlorophenyl)imidazo[1,5-b]pyridazin-7-amine]
- IC50 [1, 6]: 2670 nM
- IC50 (Pim-2; [7]): 3 nM
- IC50 (Pim-1; [8]): 0.9 nM

Structure (SMILES): N[C@H]1C[C@H](C(F)(F)F)CN(c2ccncc2Nc2ncc3ccc(-c4c(F)cccc4F)nn23)C1 (racemic) [Example 61, rac-N-(4-((trans)-3-amino-5-(trifluoromethyl)piperidin-1-yl)pyridin-3-yl)-2-(2,6-difluorophenyl)imidazo[1,5-b]pyridazin-7-amine bis(2,2,2-trifluoroacetate)]
- IC50 [1, 2]: 1630 nM
- IC50 (Pim-2; [4]): 1.4 nM
- IC50 (Pim-1; [3]): 0.4 nM

Structure (SMILES): C[C@@H]1C[C@H](N)CN(c2ccncc2Nc2ncc3ccc(-c4nccs4)nn23)C1 [Example 62, N-(4-((3S,5R)-3-amino-5-methylpiperidin-1-yl)pyridin-3-yl)-2-(thiazol-2-yl)imidazo[1,5-b]pyridazin-7-amine bis(2,2,2-trifluoroacetate)]
- IC50 [1, 2]: 183 nM
- IC50 (Pim-2; read-out: Pim-2 IC50 IP): 0.4 nM
- IC50 (Pim-1; [3]): 0.3 nM

Structure (SMILES): N[C@H]1C[C@@H](F)CN(c2ccncc2Nc2ncc3ccc(-c4c(F)cccc4F)nn23)C1 [Example 48, N-(4-((3S,5R)-3-amino-5-fluoropiperidin-1-yl)pyridin-3-yl)-2-(2,6-difluorophenyl)imidazo[1,5-b]pyridazin-7-amine tris(2,2,2-trifluoroacetate)]
- IC50 [1, 2]: 983 nM
- IC50 (Pim-2; [4]): 3.2 nM
- IC50 (Pim-1; [3]): 0.8 nM

Structure (SMILES): N[C@H]1CCCN(c2ccncc2Nc2ncc3ccc(-c4c(F)cccc4F)nn23)C1 [Example 1, N-(4-((3S)-3-amino-1-piperidinyl)-3-pyridinyl)-2-(2,6-difluorophenyl)imidazo[1,5-b]pyridazin-7-amine tris(2,2,2-trifluoroacetate)]
- IC50 [1, 6]: 428 nM
- IC50 (Pim-2; read-out: Pim2_IC50): 0.5 nM
- IC50 (Pim-1; [8]): 0.08 nM

Structure (SMILES): CN(C)C(=O)c1ccc(F)c(-c2ccc3cnc(Nc4cnccc4N4CCC[C@H](N)C4)n3n2)c1 [Example 89, (S)-3-(7-((4-(3-aminopiperidin-1-yl)pyridin-3-yl)amino)imidazo[1,5-b]pyridazin-2-yl)-4-fluoro-N,N-dimethylbenzamide tetra(2,2,2-trifluoroacetate)]
- IC50 [1, 2]: 1350 nM
- IC50 (Pim-2; [4]): 5.3 nM
- IC50 (Pim-1; [3]): 3.5 nM

Structure (SMILES): N[C@H]1CCCN(c2ccncc2Nc2nnc3ccc(-c4ncccc4F)nn23)C1 [Example 91, N-(4-((3S)-3-amino-1-piperidinyl)-3-pyridinyl)-6-(3-fluoro-2-pyridinyl)[1,2,4]triazolo[4,3-b]pyridazin-3-amine bis(2,2,2-trifluoroacetate)]
- IC50 [1, 2]: 11300 nM
- IC50 (Pim-2; read-out: Pim-2 IC50 IP): 30.5 nM
- IC50 (Pim-1; [3]): 5.6 nM

Structure (SMILES): O[C@H]1CCN(c2ccncc2Nc2ncc3ccc(-c4c(F)cccc4F)nn23)C[C@@H]1O (mixture of isomers) [Example 25, (3S,4S)-1-(3-((2-(2,6-difluorophenyl)imidazo[1,5-b]pyridazin-7-yl)amino)-4-pyridinyl)-3,4-piperidinediol and (3R,4R)-1-(3-((2-(2,6-difluorophenyl)imidazo[1,5-b]pyridazin-7-yl)amino)-4-pyridinyl)-3,4-piperidinediol (1/1)]
- IC50 ([1]; read-out: KMS12_Cell_IC50): 777 nM
- IC50 (Pim-2; read-out: Pim2_IC50): 8 nM
- IC50 (Pim-1; read-out: Pim_1_IC50): 2 nM

Structure (SMILES): N[C@H]1CCCN(c2ccncc2Nc2ncc3ccc(-c4ncccc4Cl)nn23)C1 [Example 78, (S)-N-(4-(3-aminopiperidin-1-yl)pyridin-3-yl)-2-(3-chloropyridin-2-yl)imidazo[1,5-b]pyridazin-7-amine]
- IC50 [1, 2]: 620 nM
- IC50 (Pim-2; [4]): 2.6 nM
- IC50 (Pim-1; [3]): 0.9 nM

Structure (SMILES): N[C@H]1CCCN(c2ccncc2Nc2ncc3ccc(-c4cccnc4Cl)nn23)C1 [Example 6, N-(4-((3S)-3-amino-1-piperidinyl)-3-pyridinyl)-2-(2-chloro-3-pyridinyl)imidazo[1,5-b]pyridazin-7-amine (2,2,2-trifluoroacetate)]
- IC50 [1, 6]: 6660 nM
- IC50 (Pim-2; [7]): 77 nM
- IC50 (Pim-1; [8]): 8 nM

Structure (SMILES): Nc1cccc(-c2ccncc2Nc2ncc3ccc(-c4c(F)cccc4F)nn23)c1 [Example 27, N-(4-(3-aminophenyl)-3-pyridinyl)-2-(2,6-difluorophenyl)imidazo[1,5-b]pyridazin-7-amine]
- IC50 [1, 6]: > 1000 nM
- IC50 (Pim-2; [7]): 121 nM
- IC50 (Pim-1; [8]): 9 nM

Structure (SMILES): C[C@H]1CN(c2ccncc2Nc2ncc3ccc(-c4ccc(S(C)(=O)=O)cc4F)nn23)C[C@@H](N)[C@@H]1O [Example 23, (3R,4R,5S)-3-amino-1-(3-((2-(2-fluoro-4-(methylsulfonyl)phenyl)imidazo[1,5-b]pyridazin-7-yl)amino)-4-pyridinyl)-5-methyl-4-piperidinol]
- IC50 [1, 6]: 1400 nM
- IC50 (Pim-2; [7]): 0.5 nM
- IC50 (Pim-1; [8]): 0.1 nM

Structure (SMILES): C[C@H]1CN(c2ccncc2Nc2ncc3ccc(-c4c(F)cccc4F)nn23)C[C@@H](N)[C@@H]1O [Example 20, (3R,4R,5S)-3-amino-1-(3-((2-(2,6-difluorophenyl)imidazo[1,5-b]pyridazin-7-yl)amino)-4-pyridinyl)-5-methyl-4-piperidinol]
- IC50 [1, 6]: 40 nM
- IC50 (Pim-2; [7]): 0.08 nM
- IC50 (Pim-1; [8]): 0.04 nM

Structure (SMILES): C[C@@H]1C[C@H](N)CN(c2ccncc2Nc2nnc3ccc(-c4ncccc4F)nn23)C1 [Example 92, N-(4-((3S,5R)-3-amino-5-methyl-1-piperidinyl)-3-pyridinyl)-6-(3-fluoro-2-pyridinyl)[1,2,4]triazolo[4,3-b]pyridazin-3-amine]
- IC50 [1, 2]: 2200 nM
- IC50 (Pim-2; [4]): 10.6 nM
- IC50 (Pim-1; [3]): 1.6 nM

Structure (SMILES): N[C@H]1CCCN(c2ccccc2Nc2ncc3ccc(-c4c(F)cccc4F)nn23)C1 [Example 73, (S)-N-(2-(3-aminopiperidin-1-yl)phenyl)-2-(2,6-difluorophenyl)imidazo[1,5-b]pyridazin-7-amine]
- IC50 [1, 2]: 3440 nM
- IC50 (Pim-2; [4]): 6.5 nM
- IC50 (Pim-1; [3]): 2.2 nM
